Results published in patent publication US20240124432A1, “HERBICIDAL COMPOUNDS” (SYNGENTA CROP PROTECTION AG, priority 2020, published 2024).

Columns and labels:
Type in all cases: in vivo
SETFA [1] = assay: Post-emergence biological efficacy; details: Setaria faberi, 312 h, evaluated after 13 days, read-out: damage to plant (100=total damage to plant; 0=no damage to plant)
Outline: (§1)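 Pot-grown plants were raised 14 days in a glasshouse (24/19 °C day/night, 16 h light), then sprayed post-emergence with an aqueous dilution of a 50 g/l IF50 formulation stock in 0.2% Genapol XO80. They were kept at 24/18 °C, 15 h light, 50% humidity, and visually scored for damage after 13 days (0 = none, 100 = total).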

LOLPE [2] = assay: Post-emergence biological efficacy; details: Lolium perenne, 312 h, evaluated after 13 days, read-out: damage to plant (100=total damage to plant; 0=no damage to plant)
Outline: as §1

DIGSA = assay: Post-emergence biological efficacy; details: Digitaria sanguinalis, 312 h, evaluated after 13 days, read-out: damage to plant (100=total damage to plant; 0=no damage to plant)
Outline: as §1

AMAPA [3] = assay: Post-emergence biological efficacy; details: Amaranthus palmeri, 312 h, evaluated after 13 days, read-out: damage to plant (100=total damage to plant; 0=no damage to plant)
Outline: as §1

ECHCG [4] = assay: Post-emergence biological efficacy; details: Echinochloa crus-galli, 312 h, evaluated after 13 days, read-out: damage to plant (100=total damage to plant; 0=no damage to plant)
Outline: as §1

IPOHE [5] = assay: Post-emergence biological efficacy; details: Ipomoea hederacea, 312 h, evaluated after 13 days, read-out: damage to plant (100=total damage to plant; 0=no damage to plant)
Outline: as §1

ELEIN = assay: Post-emergence biological efficacy; details: 312 h, evaluated after 13 days, read-out: damage to plant (100=total damage to plant; 0=no damage to plant)
Outline: as §1

CHEAL = assay: Post-emergence biological efficacy; details: Chenopodium album, 312 h, evaluated after 13 days, read-out: damage to plant (100=total damage to plant; 0=no damage to plant)
Outline: as §1

EPHHL [6] = assay: Post-emergence biological efficacy; details: Euphorbia heterophylla, 312 h, evaluated after 13 days, read-out: damage to plant (100=total damage to plant; 0=no damage to plant)
Outline: as §1

SETFA [7] = assay: Pre-emergence biological efficacy; details: Setaria faberi, 312 h, evaluated after 13 days, read-out: damage to plant (100=total damage to plant; 0=no damage to plant)
Outline: (§2)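 Seeds were sown in standard soil in pots, kept 1 day in a glasshouse (24/19 °C day/night, 16 h light), then sprayed with test compound formulated in acetone plus IF50 emulsifier mixture and diluted in 0.2% Genapol XO80 to the desired final dose. Damage was scored after 13 days (0–100).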

LOLPE [8] = assay: Pre-emergence biological efficacy; details: Lolium perenne, 312 h, evaluated after 13 days, read-out: damage to plant (100=total damage to plant; 0=no damage to plant)
Outline: as §2

AMAPA [9] = assay: Pre-emergence biological efficacy; details: Amaranthus palmeri, 312 h, evaluated after 13 days, read-out: damage to plant (100=total damage to plant; 0=no damage to plant)
Outline: as §2

ECHCG [10] = assay: Pre-emergence biological efficacy; details: Echinochloa crus-galli, 312 h, evaluated after 13 days, read-out: damage to plant (100=total damage to plant; 0=no damage to plant)
Outline: as §2

IPOHE [11] = assay: Pre-emergence biological efficacy; details: Ipomoea hederacea, 312 h, evaluated after 13 days, read-out: damage to plant (100=total damage to plant; 0=no damage to plant)
Outline: as §2

EPHHL [12] = assay: Pre-emergence biological efficacy; details: Euphorbia heterophylla, 312 h, evaluated after 13 days, read-out: damage to plant (100=total damage to plant; 0=no damage to plant)
Outline: as §2

In the case of CCOC(=O)C1(C)CC(c2cc(-c3ccnc(C(F)(F)F)c3)c(F)cc2Cl)=NO1 (stereo not drawn) [Compound 1-499, Ethyl 3-[2-chloro-4-fluoro-5-[2-(trifluoromethyl)-4-pyridyl]-phenyl]-5-methyl-4H-isoxazole-5-carboxylate], the pest or weed control at 250 g/ha (SETFA [1]) was 80%, the pest or weed control at 250 g/ha (LOLPE [2]) was 0% and the pest or weed control at 250 g/ha (DIGSA) was 60%. For the same molecule, the pest or weed control at 250 g/ha (AMAPA [3]) was 80%, the pest or weed control at 250 g/ha (ECHCG [4]) was 50% and the pest or weed control at 250 g/ha (IPOHE [5]) was 70%. It also gave a pest or weed control at 250 g/ha (ELEIN) of 60%, a pest or weed control at 250 g/ha (CHEAL) of 80% and a pest or weed control at 250 g/ha (EPHHL [6]) of 50%. The pest or weed control at 250 g/ha (SETFA [7]) was 0%, the pest or weed control at 250 g/ha (LOLPE [8]) was 20% and the pest or weed control at 250 g/ha (AMAPA [9]) was 20%. The pest or weed control at 250 g/ha (ECHCG [10]) was 0%, the pest or weed control at 250 g/ha (IPOHE [11]) was 0% and the pest or weed control at 250 g/ha (EPHHL [12]) was 0%.
For CCOC(=O)C1(C)CC(c2cc(-c3cc(Cl)ncc3OC)c(F)cc2Cl)=NO1 (stereo not drawn) [Compound 1-511, Ethyl 3-[2-chloro-5-(2-chloro-5-methoxy-4-pyridyl)-4-fluoro-phenyl]-5-methyl-4H-isoxazole-5-carboxylate], the pest or weed control at 250 g/ha (SETFA [1]) was 30%, the pest or weed control at 250 g/ha (LOLPE [2]) was 0% and the pest or weed control at 250 g/ha (DIGSA) was 30%. The pest or weed control at 250 g/ha (AMAPA [3]) was 40%, the pest or weed control at 250 g/ha (ECHCG [4]) was 30% and the pest or weed control at 250 g/ha (IPOHE [5]) was 60%. It also gave a pest or weed control at 250 g/ha (ELEIN) of 40%, a pest or weed control at 250 g/ha (CHEAL) of 50% and a pest or weed control at 250 g/ha (EPHHL [6]) of 50%. The pest or weed control at 250 g/ha (SETFA [7]) was 0%, the pest or weed control at 250 g/ha (LOLPE [8]) was 0% and the pest or weed control at 250 g/ha (AMAPA [9]) was 0%. It also gave a pest or weed control at 250 g/ha (ECHCG [10]) of 0%, a pest or weed control at 250 g/ha (IPOHE [11]) of 0% and a pest or weed control at 250 g/ha (EPHHL [12]) of 0%.
CCOC(=O)C1(C)CC(c2cc(-c3cc(Cl)nc(OC)c3)c(F)cc2Cl)=NO1 (stereo not drawn) [Compound 1-523, Ethyl 3-[2-chloro-5-(2-chloro-6-methoxy-4-pyridyl)-4-fluoro-phenyl]-5-methyl-4H-isoxazole-5-carboxylate] was tested, and the pest or weed control at 250 g/ha (SETFA [1]) was 50%, the pest or weed control at 250 g/ha (LOLPE [2]) was 0% and the pest or weed control at 250 g/ha (DIGSA) was 50%. The pest or weed control at 250 g/ha (AMAPA [3]) was 50%, the pest or weed control at 250 g/ha (ECHCG [4]) was 20% and the pest or weed control at 250 g/ha (IPOHE [5]) was 60%. For the same molecule, the pest or weed control at 250 g/ha (ELEIN) was 10%, the pest or weed control at 250 g/ha (CHEAL) was 40% and the pest or weed control at 250 g/ha (EPHHL [6]) was 50%. It also gave a pest or weed control at 250 g/ha (SETFA [7]) of 0%, a pest or weed control at 250 g/ha (LOLPE [8]) of 0% and a pest or weed control at 250 g/ha (AMAPA [9]) of 0%. For the same molecule, the pest or weed control at 250 g/ha (ECHCG [10]) was 20%, the pest or weed control at 250 g/ha (IPOHE [11]) was 0% and the pest or weed control at 250 g/ha (EPHHL [12]) was 0%.
CCOC(=O)C1(C)CC(c2cc(-c3ncc(F)cc3F)c(F)cc2Cl)=NO1 (stereo not drawn) [Compound 1-551, Ethyl 3-[2-chloro-5-(3,5-difluoro-2-pyridyl)-4-fluoro-phenyl]-5-methyl-4H-isoxazole-5-carboxylate] showed a pest or weed control at 250 g/ha (SETFA [1]) of 100%, a pest or weed control at 250 g/ha (LOLPE [2]) of 100% and a pest or weed control at 250 g/ha (DIGSA) of 100%. For the same molecule, the pest or weed control at 250 g/ha (AMAPA [3]) was 100%, the pest or weed control at 250 g/ha (ECHCG [4]) was 100% and the pest or weed control at 250 g/ha (IPOHE [5]) was 100%. It also gave a pest or weed control at 250 g/ha (ELEIN) of 100%, a pest or weed control at 250 g/ha (CHEAL) of 100% and a pest or weed control at 250 g/ha (EPHHL [6]) of 90%. It also gave a pest or weed control at 250 g/ha (SETFA [7]) of 90%, a pest or weed control at 250 g/ha (LOLPE [8]) of 50% and a pest or weed control at 250 g/ha (AMAPA [9]) of 80%. It also gave a pest or weed control at 250 g/ha (ECHCG [10]) of 80%, a pest or weed control at 250 g/ha (IPOHE [11]) of 60% and a pest or weed control at 250 g/ha (EPHHL [12]) of 50%.
CCOC(=O)C1(C)CC(c2cc(-c3ncc(Br)cc3Cl)c(F)cc2Cl)=NO1 (stereo not drawn) [Compound 1-559, Ethyl 3-[5-(5-bromo-3-chloro-2-pyridyl)-2-chloro-4-fluoro-phenyl]-5-methyl-4H-isoxazole-5-carboxylate] was tested, and the pest or weed control at 250 g/ha (SETFA [1]) was 100%, the pest or weed control at 250 g/ha (LOLPE [2]) was 90% and the pest or weed control at 250 g/ha (DIGSA) was 80%. It also gave a pest or weed control at 250 g/ha (AMAPA [3]) of 100%, a pest or weed control at 250 g/ha (ECHCG [4]) of 100% and a pest or weed control at 250 g/ha (IPOHE [5]) of 100%. It also gave a pest or weed control at 250 g/ha (ELEIN) of 90%, a pest or weed control at 250 g/ha (CHEAL) of 100% and a pest or weed control at 250 g/ha (EPHHL [6]) of 100%. It also gave a pest or weed control at 250 g/ha (SETFA [7]) of 80%, a pest or weed control at 250 g/ha (LOLPE [8]) of 50% and a pest or weed control at 250 g/ha (AMAPA [9]) of 100%. It also gave a pest or weed control at 250 g/ha (ECHCG [10]) of 90%, a pest or weed control at 250 g/ha (IPOHE [11]) of 10% and a pest or weed control at 250 g/ha (EPHHL [12]) of 50%.
